Assay results taken from patent US20220348595A1, “COMPOUNDS AND METHODS FOR THE TARGETED DEGRADATION OF ESTROGEN RECEPTORS” (Endotarget Inc., priority 2021, published 2022).
Where two headings read alike, the source gives them in different places.

How the values were obtained:
Assay type in all cases: cell-based
[1] = tested on: MCF-7 breast cancer cells; assay: MCF-7 proliferation / cell viability assay; conditions: MCF-7 proliferation with 0.1 nM 17-beta estradiol, read-out: IC50 (anti-proliferation)
Method in brief: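 Survival ratio, with vehicle (DMSO) as 100%, was derived from Coulter-counted viable cell numbers. Cells were grown in 5% FBS DMEM and dosed for 5 days across six concentrations between 10^−10 M and 10^−5 M.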

ERα = target: T1, ERα (Homo sapiens, UniProt P03372); assay: ER degradation in MCF-7 cells (Western blot); conditions: for DC50: ER degradation, 24 hours
T1 construct: endogenous in cells; host or cells: MCF-7
T1 sequence (P03372 1-595): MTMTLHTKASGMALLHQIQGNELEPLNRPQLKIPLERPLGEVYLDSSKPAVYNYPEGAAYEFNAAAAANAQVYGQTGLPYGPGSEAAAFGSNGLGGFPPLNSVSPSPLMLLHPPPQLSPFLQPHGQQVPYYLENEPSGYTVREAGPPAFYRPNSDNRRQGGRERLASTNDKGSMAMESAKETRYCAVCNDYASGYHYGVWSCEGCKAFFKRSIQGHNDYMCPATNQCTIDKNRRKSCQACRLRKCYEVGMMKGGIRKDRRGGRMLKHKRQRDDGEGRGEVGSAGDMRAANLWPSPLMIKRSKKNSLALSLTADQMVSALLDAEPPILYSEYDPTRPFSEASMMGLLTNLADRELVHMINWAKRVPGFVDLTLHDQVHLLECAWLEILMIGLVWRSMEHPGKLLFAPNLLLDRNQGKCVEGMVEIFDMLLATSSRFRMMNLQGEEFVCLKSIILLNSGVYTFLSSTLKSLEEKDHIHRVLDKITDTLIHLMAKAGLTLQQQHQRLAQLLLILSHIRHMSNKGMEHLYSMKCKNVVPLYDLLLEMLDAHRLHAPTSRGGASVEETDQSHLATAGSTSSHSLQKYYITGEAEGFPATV
Method in brief: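 ERα levels assessed by Western blot (50 μg lysate protein, infrared scanner) after 24-hour exposure of MCF-7 cells to varied compound concentrations. Values reported as DC50, the concentration halving ER expression, and Dmax, the maximal ER reduction achieved across tested concentrations.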

ER = target: T2, ER (Homo sapiens, UniProt P03372); assay: ER antagonism (T47D ERE luciferase), T47d-kb-Luc cells; conditions: read-out: IC50 (ER antagonistm)
T2 construct: endogenous in cells; host or cells: T47d-kb-Luc (T47D stably transfected with a luciferase reporter gene only)
T2 sequence (P03372 1-595): T1 sequence (P03372 1-595)
Method in brief: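 Five sample concentrations, each in quadruplicate and repeated in at least three experiments, were tested for blocking of estradiol activity. Values were expressed relative to the estradiol control. The cell system was the T47d-kb-Luc stable breast cancer line.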

[2] = MCF7, Maximal ER degradation, read-out: Dmax

## CC/C(=C(/c1ccc(OCCN2CCN(C(=O)N3CCC(N4CCN(c5ccc6c(c5)CN(C5CCC(=O)NC5=O)C6=O)CC4)CC3)CC2)cc1)c1ccc(B(O)O)cc1)c1ccccc1 (stereo not shown) [Compound 95]
[1]; Homo sapiens, MCF7
  IC50: < 10 nM
ERα
  DC50: 10 to 50 nM
ERα; [2]
  Dmax: > 90%
ER
  IC50: < 10 nM

## CC/C(=C(\c1ccc(OCCN2CCN(C(=O)N3CCC(N4CCN(c5ccc6c(c5)CN(C5CCC(=O)NC5=O)C6=O)CC4)CC3)CC2)cc1)c1ccc(B(O)O)cc1)c1ccccc1 (stereo not shown) [Compound 96, (E)-(4-(1-(4-(2-(4-(4-(4-(2-(2,6-dioxopiperidin-3-yl)-1-oxoisoindolin-5-yl)piperazin-1-yl)piperidine-1-carbonyl)piperazin-1-yl)ethoxyl)phenyl)-2-phenylbut-1-en-1-yl)phenyl)boronic acid]
[1]; Homo sapiens, MCF7
  IC50: < 10 nM
ERα
  DC50: 10 to 50 nM
ERα; [2]
  Dmax: > 90%
ER
  IC50: < 10 nM

## CC/C(=C(\c1ccc(O)cc1)c1ccc(N2CCN(C(=O)N3CCN(c4ccc5c(c4)CN(C4CCC(=O)NC4=O)C5=O)CC3)CC2)cc1)c1ccccc1 (stereo not shown) [Compound 97, (E)-3-(5-(4-(4-(4-(1-(4-hydroxyphenyl)-2-phenylbut-1-en-1-yl)phenyl)piperazine-1-carbonyl)piperazin-1-yl)-1-oxoisoindolin-2-yl)piperidine-2,6-dione]
[1]; Homo sapiens, MCF7
  IC50: 10 to 50 nM
ERα
  DC50: 10 to 50 nM
ERα; [2]
  Dmax: > 90%
ER
  IC50: < 10 nM

## CC/C(=C(\c1ccc(O)cc1)c1ccc(N2CCN(C(=O)N3CCN(c4ccc5c(c4)CN([C@H]4CCC(=O)NC4=O)C5=O)CC3)CC2)cc1)c1ccccc1 [Compound 98]
[1]
  IC50: 10 to 50 nM
ERα
  DC50: 10 to 50 nM
ERα; Maximal ER degradation
  Dmax: A (A -> 90%)
ER
  IC50: < 10 nM

## CC/C(=C(\c1ccc(O)cc1)c1ccc(N2CCN(C(=O)N3CCN(c4ccc5c(c4)CN([C@@H]4CCC(=O)NC4=O)C5=O)CC3)CC2)cc1)c1ccccc1 [Compound 99, (R,E)-3-(5-(4-(4-(4-(1-(4-hydroxyphenyl)-2-phenylbut-1-en-1-yl)phenyl)piperazine-1-carbonyl)piperazin-1-yl)-1-oxoisoindolin-2-yl)piperidine-2,6-dione]
[1]; Homo sapiens, MCF7
  IC50: 10 to 50 nM
ERα
  DC50: 10 to 50 nM
ERα; [2]
  Dmax: > 90%
ER
  IC50: < 10 nM

## CC/C(=C(/c1ccc(O)cc1)c1ccc(N2CCN(C(=O)N3CCN(c4ccc5c(c4)CN(C4CCC(=O)NC4=O)C5=O)CC3)CC2)cc1)c1ccccc1 (stereo not shown) [Compound 100]
[1]; Homo sapiens, MCF7
  IC50: 10 to 50 nM
ERα
  DC50: < 10 nM
ERα; [2]
  Dmax: > 90%
ER
  IC50: < 10 nM

## CC/C(=C(/c1ccc(O)cc1)c1ccc(N2CCN(C(=O)N3CCN(c4ccc5c(c4)CN([C@H]4CCC(=O)NC4=O)C5=O)CC3)CC2)cc1)c1ccccc1 [Compound 101, (S,Z)-3-(5-(4-(4-(4-(1-(4-hydroxyphenyl)-2-phenylbut-1-en-1-yl)phenyl)piperazine-1-carbonyl)piperazin-1-yl)-1-oxoisoindolin-2-yl)piperidine-2,6-dione]
[1]; Homo sapiens, MCF7
  IC50: 10 to 50 nM
ERα
  DC50: < 10 nM
ERα; [2]
  Dmax: > 90%
ER
  IC50: < 10 nM

## CC/C(=C(/c1ccc(O)cc1)c1ccc(N2CCN(C(=O)N3CCN(c4ccc5c(c4)CN([C@@H]4CCC(=O)NC4=O)C5=O)CC3)CC2)cc1)c1ccccc1 [Compound 102, (R,Z)-3-(5-(4-(4-(4-(1-(4-hydroxyphenyl)-2-phenylbut-1-en-1-yl)phenyl)piperazine-1-carbonyl)piperazin-1-yl)-1-oxoisoindolin-2-yl)piperidine-2,6-dione]
[1]; Homo sapiens, MCF7
  IC50: 10 to 50 nM
ERα
  DC50: < 10 nM
ERα; [2]
  Dmax: > 90%
ER
  IC50: < 10 nM

## CC/C(=C(\c1ccc(B(O)O)cc1)c1ccc(N2CCN(C(=O)N3CCN(c4ccc5c(c4)CN(C4CCC(=O)NC4=O)C5=O)CC3)CC2)cc1)c1ccccc1 (stereo not shown) [Compound 103, (Z)-(4-(1-(4-(4-(4-(2-(2,6-dioxopiperidin-3-yl)-1-oxoisoindolin-5-yl)piperazine-1-carbonyl)piperazin-1-yl)phenyl)-2-phenylbut-1-en-1-yl)phenyl)boronic acid]
[1]; Homo sapiens, MCF7
  IC50: < 10 nM
ERα
  DC50: < 10 nM
ERα; [2]
  Dmax: > 90%
ER
  IC50: < 10 nM

## CC/C(=C(\c1ccc(B(O)O)cc1)c1ccc(N2CCN(C(=O)N3CCN(c4ccc5c(c4)CN([C@H]4CCC(=O)NC4=O)C5=O)CC3)CC2)cc1)c1ccccc1 [Compound 104, (S,Z)-(4-(1-(4-(4-(4-(2-(2,6-dioxopiperidin-3-yl)-1-oxoisoindolin-5-yl)piperazine-1-carbonyl)piperazin-1-yl)phenyl)-2-phenylbut-1-en-1-yl)phenyl)boronic acid]
[1]; Homo sapiens, MCF7
  IC50: < 10 nM
ERα
  DC50: < 10 nM
ERα; [2]
  Dmax: > 90%
ER
  IC50: < 10 nM

## CC/C(=C(\c1ccc(B(O)O)cc1)c1ccc(N2CCN(C(=O)N3CCN(c4ccc5c(c4)CN([C@@H]4CCC(=O)NC4=O)C5=O)CC3)CC2)cc1)c1ccccc1 [Compound 105]
[1]; Homo sapiens, MCF7
  IC50: < 10 nM
ERα
  DC50: < 10 nM
ERα; [2]
  Dmax: > 90%
ER
  IC50: < 10 nM

## CC/C(=C(/c1ccc(B(O)O)cc1)c1ccc(N2CCN(C(=O)N3CCN(c4ccc5c(c4)CN(C4CCC(=O)NC4=O)C5=O)CC3)CC2)cc1)c1ccccc1 (stereo not shown) [Compound 106]
[1]; Homo sapiens, MCF7
  IC50: < 10 nM
ERα
  DC50: < 10 nM
ERα; [2]
  Dmax: > 90%
ER
  IC50: < 10 nM

## CC/C(=C(/c1ccc(B(O)O)cc1)c1ccc(N2CCN(C(=O)N3CCN(c4ccc5c(c4)CN([C@H]4CCC(=O)NC4=O)C5=O)CC3)CC2)cc1)c1ccccc1 [Compound 107, (S,E)-(4-(1-(4-(4-(4-(2-(2,6-dioxopiperidin-3-yl)-1-oxoisoindolin-5-yl)piperazine-1-carbonyl)piperazin-1-yl)phenyl)-2-phenylbut-1-en-1-yl)phenyl)boronic acid]
[1]; Homo sapiens, MCF7
  IC50: < 10 nM
ERα
  DC50: < 10 nM
ERα; [2]
  Dmax: > 90%
ER
  IC50: < 10 nM

## CC/C(=C(/c1ccc(B(O)O)cc1)c1ccc(N2CCN(C(=O)N3CCN(c4ccc5c(c4)CN([C@@H]4CCC(=O)NC4=O)C5=O)CC3)CC2)cc1)c1ccccc1 [Compound 108, (R,E)-(4-(1-(4-(4-(4-(2-(2,6-dioxopiperidin-3-yl)-1-oxoisoindolin-5-yl)piperazine-1-carbonyl)piperazin-1-yl)phenyl)-2-phenylbut-1-en-1-yl)phenyl)boronic acid]
[1]; Homo sapiens, MCF7
  IC50: < 10 nM
ERα
  DC50: < 10 nM
ERα; [2]
  Dmax: > 90%
ER
  IC50: < 10 nM

## CC/C(=C(\c1ccc(O)cc1)c1ccc(N2CCN(C(=O)N3CCC(N4CCN(c5ccc6c(c5)CN(C5CCC(=O)NC5=O)C6=O)CC4)CC3)CC2)cc1)c1ccccc1 (stereo not shown) [Compound 109, (E)-3-(5-(4-(1-(4-(4-(1-(4-hydroxyphenyl)-2-phenylbut-1-en-1-yl)phenyl)piperazine-1-carbonyl)piperidin-4-yl)piperazin-1-yl)-1-oxoisoindolin-2-yl)piperidine-2,6-dione]
[1]; Homo sapiens, MCF7
  IC50: 10 to 50 nM
ERα
  DC50: 10 to 50 nM
ERα; [2]
  Dmax: > 90%
ER
  IC50: < 10 nM

## CC/C(=C(\c1ccc(B(O)O)cc1)c1ccc(N2CCN(C(=O)N3CCC(N4CCN(c5ccc6c(c5)CN(C5CCC(=O)NC5=O)C6=O)CC4)CC3)CC2)cc1)c1ccccc1 (stereo not shown) [Compound 110, (Z)-(4-(1-(4-(4-(4-(4-(2-(2,6-dioxopiperidin-3-yl)-1-oxoisoindolin-5-yl)piperazin-1-yl)piperidine-1-carbonyl)piperazin-1-yl)phenyl)-2-phenylbut-1-en-1-yl)phenyl)boronic acid]
[1]; Homo sapiens, MCF7
  IC50: 10 to 50 nM
ERα
  DC50: 10 to 50 nM
ERα; [2]
  Dmax: > 90%
ER
  IC50: < 10 nM
